Assay results: ChEMBL document CHEMBL3868608, “Discovery of 1,3-diethyl-7-methyl-8-(phenoxymethyl)-xanthine derivatives as novel adenosine A1 and A2A receptor antagonists” (Bioorg Med Chem Lett, 2016)

How the values were obtained:
[1] = system: brain; assay: Selectivity index, ratio of Ki for adenosine receptor A2A in Sprague-Dawley rat striatal membranes to Ki for adenosine receptor A1 in Sprague-Dawley rat whole brain cell membranes; assay type: cell-based
[2] = target: T1, Adenosine receptor A2a (Rattus norvegicus, UniProt P30543); assay: Displacement of [3H]NECA from adenosine receptor A2A in Sprague-Dawley rat striatal membranes after 60 mins by liquid scintillation counting; design: species or system Striatum, Membrane
[3] = target: T2, Adenosine receptor A1 (Rattus norvegicus, UniProt P25099); assay: Displacement of [3H]DPCPX from adenosine receptor A1 in Sprague-Dawley rat whole brain cell membranes after 60 mins by liquid scintillation counting
T2 sequence (P25099 whole entry): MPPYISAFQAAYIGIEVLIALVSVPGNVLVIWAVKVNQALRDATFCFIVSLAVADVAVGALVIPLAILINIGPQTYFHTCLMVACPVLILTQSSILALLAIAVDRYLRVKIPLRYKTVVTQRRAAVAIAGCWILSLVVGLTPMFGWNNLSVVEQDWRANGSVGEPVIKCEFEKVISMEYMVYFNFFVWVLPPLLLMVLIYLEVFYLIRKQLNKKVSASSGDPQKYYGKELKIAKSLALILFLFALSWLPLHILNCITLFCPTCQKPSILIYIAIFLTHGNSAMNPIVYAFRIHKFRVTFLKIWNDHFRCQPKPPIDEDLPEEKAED

[4] = target: T2, Adenosine receptor A1; assay: Displacement of [3H]DPCPX from adenosine receptor A1 in Sprague-Dawley rat whole brain membranes after 60 mins in presence of GTP by liquid scintillation counting method; design: species or system Membrane
[5] = target: T1, Adenosine receptor A2a; assay: Displacement of [3H]NECA from adenosine receptor A2A in rat striatal membranes

T1 sequence (P30543 whole entry): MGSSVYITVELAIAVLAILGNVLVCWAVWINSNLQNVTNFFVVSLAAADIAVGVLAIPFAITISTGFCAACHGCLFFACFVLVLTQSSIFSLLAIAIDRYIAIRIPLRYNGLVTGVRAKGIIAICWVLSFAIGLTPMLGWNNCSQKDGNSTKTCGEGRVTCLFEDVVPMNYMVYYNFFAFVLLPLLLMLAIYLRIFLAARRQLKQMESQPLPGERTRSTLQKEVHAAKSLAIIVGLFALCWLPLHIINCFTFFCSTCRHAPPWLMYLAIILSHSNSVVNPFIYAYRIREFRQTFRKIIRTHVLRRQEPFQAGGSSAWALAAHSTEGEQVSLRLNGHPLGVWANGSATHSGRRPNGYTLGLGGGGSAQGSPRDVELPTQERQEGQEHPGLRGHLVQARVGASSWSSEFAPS

Ki [2] [nM] | Ki [3] [µM] | Ki [4] [nM] | Ki [5] [nM] | Compound | Ratio Ki [1]
1300 | 1.42 | – | – | CCn1c(=O)c2c(nc(COc3ccc(C)cc3)n2C)n(CC)c1=O | 0.9
1360 | 0.264 | 267 | – | CCn1c(=O)c2c(nc(COc3ccc(Br)cc3)n2C)n(CC)c1=O | –
– | – | 892 | – | CCn1c(=O)c2c(nc(COc3ccccc3)n2C)n(CC)c1=O | –
841 | 1.23 | – | – | CCn1c(=O)c2c(nc(COc3ccc(F)cc3)n2C)n(CC)c1=O | 0.7
2400 | 4.67 | – | – | COc1ccc(OCc2nc3c(c(=O)n(C)c(=O)n3C)n2C)cc1 | 0.5
940 | 5.56 | – | – | Cn1c(=O)c2c(nc(COc3ccc(Cl)cc3)n2C)n(C)c1=O | 0.2
3640 | 6.76 | – | – | Cc1ccc(OCc2nc3c(c(=O)n(C)c(=O)n3C)n2C)cc1 | 0.5
2570 | 9.19 | – | – | Cn1c(=O)c2c(nc(COc3ccc(F)cc3)n2C)n(C)c1=O | 0.3
1040 | 0.974 | – | – | CCn1c(=O)c2c(nc(COc3ccc(Cl)cc3)n2C)n(CC)c1=O | 1.1
1730 | 3.69 | – | – | Cn1c(=O)c2c(nc(COc3ccc(Br)cc3)n2C)n(C)c1=O | 0.5
237 | 1.22 | – | 237 | CCn1c(=O)c2c(nc(COc3ccc(OC)cc3)n2C)n(CC)c1=O | –
2690 | 5.61 | – | – | CCn1c(=O)c2c(ncn2C)n(CC)c1=O | 0.5
